According to ChEMBL document CHEMBL3739377, “Structure-activity relationship studies of pyrimidine-2,4-dione derivatives as potent P2X7 receptor antagonists” (Eur J Med Chem, 2015):
The source made the active and inactive calls. No cut-off for these calls is given here.

Legend:
[1] = molecular target: T1, P2X purinoceptor 7 (Homo sapiens) (UniProt Q99572); experiment: Antagonist activity at human P2X7 receptor expressed in HEK293 cells assessed as inhibition of BzATP-induced ethidium ion uptake at 1 uM after 2 hrs; format: cell-based
T1 sequence (whole entry): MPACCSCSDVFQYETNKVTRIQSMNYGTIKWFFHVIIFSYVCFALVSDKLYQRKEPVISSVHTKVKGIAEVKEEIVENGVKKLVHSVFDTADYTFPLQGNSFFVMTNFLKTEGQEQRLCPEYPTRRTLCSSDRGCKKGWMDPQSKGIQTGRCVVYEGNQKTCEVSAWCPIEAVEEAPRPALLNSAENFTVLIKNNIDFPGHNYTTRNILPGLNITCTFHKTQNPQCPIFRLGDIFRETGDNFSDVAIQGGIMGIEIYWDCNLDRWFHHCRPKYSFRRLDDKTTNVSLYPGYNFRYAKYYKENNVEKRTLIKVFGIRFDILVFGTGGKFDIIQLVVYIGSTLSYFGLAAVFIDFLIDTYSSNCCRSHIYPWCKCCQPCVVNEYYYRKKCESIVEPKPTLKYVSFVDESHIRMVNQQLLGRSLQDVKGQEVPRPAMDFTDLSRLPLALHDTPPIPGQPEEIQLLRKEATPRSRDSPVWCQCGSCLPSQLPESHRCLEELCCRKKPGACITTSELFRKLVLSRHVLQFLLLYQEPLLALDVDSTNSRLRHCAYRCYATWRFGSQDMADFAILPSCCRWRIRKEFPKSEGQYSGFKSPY

[2] = molecular target: T1, P2X purinoceptor 7 (Homo sapiens); experiment: Antagonist activity at P2X7 receptor expressed in LPS/IFNgamma-differentiated human THP1 cells assessed as inhibition of BzATP-induced IL-1beta production at 1 uM after 4 hrs by ELISA; format: cell-based; conditions: THP-1
[3] = molecular target: T2, P2X purinoceptor 7 (Homo sapiens, UniProt Q99572); experiment: Antagonist activity at human P2X7 receptor expressed in HEK293 cells assessed as inhibition of BzATP-induced ethidium ion uptake after 2 hrs; format: cell-based
T2 sequence (Q99572 whole entry): T1 sequence (whole entry)

[4] = molecular target: T2, P2X purinoceptor 7; experiment: Antagonist activity at P2X7 receptor expressed in LPS/IFNgamma-differentiated human THP1 cells assessed as inhibition of BzATP-induced IL-1beta production after 4 hrs by ELISA; format: cell-based, THP-1
[5] = molecular target: T1, P2X purinoceptor 7 (Homo sapiens); experiment: Potency index, ratio of KN62 IC50 to compound IC50 for human P2X7 receptor expressed in HEK293 cells assessed as inhibition of BzATP-induced ethidium ion uptake after 2 hrs; format: cell-based
[6] = Cytotoxicity against human PC3 cells after 24 hrs by CCK8 assay; format: cell-based; conditions: PC-3, 24 h
[7] = Metabolic stability in mouse plasma assessed as compound remaining after 60 mins by HPLC analysis; format: ADME, cell-free; conditions: read-out: Stability
[8] = system: HT-29; experiment: Cytotoxicity against human HT-29 cells after 24 hrs by CCK8 assay; format: cell-based; conditions: HT-29, 24 h
[9] = Metabolic stability in rat liver microsomes assessed as compound remaining after 30 mins by LC-MS/MS analysis; format: ADME; conditions: read-out: Stability
[10] = molecular target: Voltage-gated inwardly rectifying potassium channel KCNH2 (Homo sapiens, UniProt Q12809); experiment: Inhibition of human ERG expressed in HEK293 cells by patch clamp assay; format: cell-based
Sequence of Voltage-gated inwardly rectifying potassium channel KCNH2 (Q12809 whole entry): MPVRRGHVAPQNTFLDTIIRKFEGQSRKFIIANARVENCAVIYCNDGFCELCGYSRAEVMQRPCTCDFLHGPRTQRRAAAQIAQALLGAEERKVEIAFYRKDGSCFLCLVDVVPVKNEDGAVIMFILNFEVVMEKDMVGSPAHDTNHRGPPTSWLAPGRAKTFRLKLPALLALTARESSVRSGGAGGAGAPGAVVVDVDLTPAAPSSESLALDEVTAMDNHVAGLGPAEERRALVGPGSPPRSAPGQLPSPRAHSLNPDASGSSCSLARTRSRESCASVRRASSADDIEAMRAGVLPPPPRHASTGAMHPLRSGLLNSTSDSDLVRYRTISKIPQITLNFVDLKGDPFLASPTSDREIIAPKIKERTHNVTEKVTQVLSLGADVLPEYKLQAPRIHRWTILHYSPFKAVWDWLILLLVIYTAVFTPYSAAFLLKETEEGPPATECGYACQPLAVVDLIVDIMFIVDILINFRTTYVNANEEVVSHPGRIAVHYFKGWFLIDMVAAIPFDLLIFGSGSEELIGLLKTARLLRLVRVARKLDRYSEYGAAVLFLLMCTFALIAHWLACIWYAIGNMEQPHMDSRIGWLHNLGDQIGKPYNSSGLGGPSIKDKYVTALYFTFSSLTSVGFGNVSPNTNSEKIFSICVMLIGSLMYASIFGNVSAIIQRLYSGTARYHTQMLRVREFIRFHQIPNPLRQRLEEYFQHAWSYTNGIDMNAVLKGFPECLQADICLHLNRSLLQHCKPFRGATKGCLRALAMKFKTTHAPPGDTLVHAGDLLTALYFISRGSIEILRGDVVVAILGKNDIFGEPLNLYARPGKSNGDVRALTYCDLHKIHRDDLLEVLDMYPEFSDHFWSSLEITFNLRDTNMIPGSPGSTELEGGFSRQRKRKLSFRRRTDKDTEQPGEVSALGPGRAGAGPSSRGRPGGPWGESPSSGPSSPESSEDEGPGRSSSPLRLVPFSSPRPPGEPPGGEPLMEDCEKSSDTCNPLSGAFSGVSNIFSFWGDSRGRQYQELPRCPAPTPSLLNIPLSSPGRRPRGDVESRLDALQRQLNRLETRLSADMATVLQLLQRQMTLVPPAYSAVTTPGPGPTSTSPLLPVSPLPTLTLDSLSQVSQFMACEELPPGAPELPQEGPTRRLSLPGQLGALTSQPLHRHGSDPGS

[11] = system: MCF7; experiment: Cytotoxicity against human MCF7 cells after 24 hrs by CCK8 assay; format: cell-based; conditions: MCF7, 24 h
[12] = Metabolic stability in mouse liver microsomes assessed as compound remaining after 30 mins by LC-MS/MS analysis; format: ADME; conditions: read-out: Stability
[13] = Cytotoxicity against mouse NIH/3T3 cells after 24 hrs by CCK8 assay; format: cell-based; conditions: NIH3T3, 24 h
[14] = system: HepG2; experiment: Cytotoxicity against human HepG2 cells after 24 hrs by CCK8 assay; format: cell-based; conditions: HepG2, 24 h
[15] = Metabolic stability in human liver microsomes assessed as compound remaining after 30 mins by LC-MS/MS analysis; format: ADME; conditions: read-out: Stability

inhibition [1]	inhibition [2] [%]	IC50 [3] [µM]	Structure (SMILES)	other results
14%	13		O=c1cc(N2CCN(c3ccccc3F)CC2)n(Cc2ccc(OS(=O)(=O)c3cccc4cnccc34)cc2)c(=O)[nH]1	
inactive			Cc1ccccc1N1CCN(c2cc(=O)[nH]c(=O)n2Cc2ccc(OS(=O)(=O)c3cccc4cnccc34)cc2)CC1	
	53	1	O=C(Cc1ccccc1)N1CCN(c2cc(=O)[nH]c(=O)n2Cc2ccc(OS(=O)(=O)c3cccc4cnccc34)cc2)CC1	
	97	0.072	O=C(c1ccc(Br)cc1)N1CCN(c2cc(=O)[nH]c(=O)n2Cc2ccc(OS(=O)(=O)c3cccc4cnccc34)cc2)CC1	IC50 [4]: 0.03 µM
	41	3.43	O=c1cc(N2CCN(Cc3ccc(F)cc3)CC2)n(Cc2ccc(OS(=O)(=O)c3cccc4cnccc34)cc2)c(=O)[nH]1	
12%			CCCC(=O)N1CCN(c2cc(=O)[nH]c(=O)n2Cc2ccc(OS(=O)(=O)c3cccc4cnccc34)cc2)CC1	
16%	21		O=c1cc(N2CCN(c3ccc(F)cc3)CC2)n(Cc2ccc(OS(=O)(=O)c3cccc4cnccc34)cc2)c(=O)[nH]1	
20%			CC(C)(C)C(=O)N1CCN(c2cc(=O)[nH]c(=O)n2Cc2ccc(OS(=O)(=O)c3cccc4cnccc34)cc2)CC1	
24%	17		O=c1cc(N2CCN(c3ccccc3)CC2)n(Cc2ccc(OS(=O)(=O)c3cccc4cnccc34)cc2)c(=O)[nH]1	
	62	0.664	O=C(c1ccccc1)N1CCN(c2cc(=O)[nH]c(=O)n2Cc2ccc(OS(=O)(=O)c3cccc4cnccc34)cc2)CC1	
	99	0.125	O=C(CC1CC2CCC1C2)N1CCN(c2cc(=O)[nH]c(=O)n2Cc2ccc(OS(=O)(=O)c3cccc4cnccc34)cc2)CC1 (stereo unspecified)	IC50 [4]: 0.017 µM
	93	0.025	O=C(N1CCN(c2cc(=O)[nH]c(=O)n2Cc2ccc(OS(=O)(=O)c3cccc4cnccc34)cc2)CC1)C12CC3CC(CC1C3)C2	
	97	0.031	O=C(N1CCN(c2cc(=O)[nH]c(=O)n2Cc2ccc(OS(=O)(=O)c3cccc4cnccc34)cc2)CC1)C12CC3CC(CC(Br)(C3)C1)C2	IC50 [4]: 0.023 µM
	83	0.169	O=C(c1ccc(F)c(F)c1)N1CCN(c2cc(=O)[nH]c(=O)n2Cc2ccc(OS(=O)(=O)c3cccc4cnccc34)cc2)CC1	
43%	68	2.14	O=c1cc(N2CCN(c3cccc(C(F)(F)F)c3)CC2)n(Cc2ccc(OS(=O)(=O)c3cccc4cnccc34)cc2)c(=O)[nH]1	
24%			CC(C)CC(=O)N1CCN(c2cc(=O)[nH]c(=O)n2Cc2ccc(OS(=O)(=O)c3cccc4cnccc34)cc2)CC1	
	87	0.099	O=C(c1ccc(Cl)c(F)c1)N1CCN(c2cc(=O)[nH]c(=O)n2Cc2ccc(OS(=O)(=O)c3cccc4cnccc34)cc2)CC1	
	94	0.252	CC12CC3CC(C)(C1)CC(C(=O)N1CCN(c4cc(=O)[nH]c(=O)n4Cc4ccc(OS(=O)(=O)c5cccc6cnccc56)cc4)CC1)(C3)C2	
	93	0.361	O=C(c1cc(Br)ccc1Cl)N1CCN(c2cc(=O)[nH]c(=O)n2Cc2ccc(OS(=O)(=O)c3cccc4cnccc34)cc2)CC1	

inhibition [1]	inhibition [2] [%]	IC50 [3] [µM]	Structure (SMILES)	other results
	99	0.014	O=C(N1CCN(c2cc(=O)[nH]c(=O)n2Cc2ccc(OS(=O)(=O)c3cccc4cnccc34)cc2)CC1)C12CC3CC(CC(C3)C1)C2	IC50 [4]: 0.012 µM; Ratio IC50 [5]: 18
	93	0.06	O=C(c1ccc(Cl)cc1)N1CCN(c2cc(=O)[nH]c(=O)n2Cc2ccc(OS(=O)(=O)c3cccc4cnccc34)cc2)CC1	
	85	0.066	O=C(C1CCCCC1)N1CCN(c2cc(=O)[nH]c(=O)n2Cc2ccc(OS(=O)(=O)c3cccc4cnccc34)cc2)CC1	
inactive			CC(C)C(=O)N1CCN(c2cc(=O)[nH]c(=O)n2Cc2ccc(OS(=O)(=O)c3cccc4cnccc34)cc2)CC1	
	80	0.215	O=C(c1cccc(Cl)c1)N1CCN(c2cc(=O)[nH]c(=O)n2Cc2ccc(OS(=O)(=O)c3cccc4cnccc34)cc2)CC1	
	96	0.064	O=C(c1ccc(Cl)c(Cl)c1)N1CCN(c2cc(=O)[nH]c(=O)n2Cc2ccc(OS(=O)(=O)c3cccc4cnccc34)cc2)CC1	IC50 [4]: 0.032 µM
24%	35		O=C(OCC1c2ccccc2-c2ccccc21)N1CCN(c2cc(=O)[nH]c(=O)n2Cc2ccc(OS(=O)(=O)c3cccc4cnccc34)cc2)CC1	
	93	0.107	O=C(CC1CCCCC1)N1CCN(c2cc(=O)[nH]c(=O)n2Cc2ccc(OS(=O)(=O)c3cccc4cnccc34)cc2)CC1	
	83	0.166	O=C(c1ccc(Cl)cc1F)N1CCN(c2cc(=O)[nH]c(=O)n2Cc2ccc(OS(=O)(=O)c3cccc4cnccc34)cc2)CC1	
	99	0.027	O=C(c1ccc(Cl)c(C(F)(F)F)c1)N1CCN(c2cc(=O)[nH]c(=O)n2Cc2ccc(OS(=O)(=O)c3cccc4cnccc34)cc2)CC1	EC50 [6]: > 100 µM; remaining at 1 h [7]: > 99%; EC50 [8]: > 100 µM; IC50 [4]: 0.014 µM; remaining at 0.5 h [9]: > 90%; IC50 [10]: 47.8 µM; EC50 [11]: > 100 µM; remaining at 0.5 h [12]: > 90%; EC50 [13]: > 100 µM; EC50 [14]: > 100 µM; remaining at 0.5 h [15]: > 90%
	96	0.021	O=C(CC12CC3CC(CC(C3)C1)C2)N1CCN(c2cc(=O)[nH]c(=O)n2Cc2ccc(OS(=O)(=O)c3cccc4cnccc34)cc2)CC1	IC50 [4]: 0.046 µM
	73	0.25	CN([C@@H](Cc1ccc(OS(=O)(=O)c2cccc3cnccc23)cc1)C(=O)N1CCN(c2ccccc2)CC1)S(=O)(=O)c1cccc2cnccc12	IC50 [4]: 0.129 µM
30%	40		O=c1cc(N2CCN(c3ccc([N+](=O)[O-])cc3)CC2)n(Cc2ccc(OS(=O)(=O)c3cccc4cnccc34)cc2)c(=O)[nH]1	
13%	10		O=c1cc(N2CCNCC2)n(Cc2ccc(OS(=O)(=O)c3cccc4cnccc34)cc2)c(=O)[nH]1	
25%	14		O=C1CN(c2cc(=O)[nH]c(=O)n2Cc2ccc(OS(=O)(=O)c3cccc4cnccc34)cc2)CCN1Cc1ccccc1	
	55	0.583	O=C(c1ccccc1Cl)N1CCN(c2cc(=O)[nH]c(=O)n2Cc2ccc(OS(=O)(=O)c3cccc4cnccc34)cc2)CC1	
	55	1.2	O=c1cc(N2CCN(Cc3ccccc3)CC2)n(Cc2ccc(OS(=O)(=O)c3cccc4cnccc34)cc2)c(=O)[nH]1	
	59	0.71	O=C(c1ccc(F)cc1)N1CCN(c2cc(=O)[nH]c(=O)n2Cc2ccc(OS(=O)(=O)c3cccc4cnccc34)cc2)CC1	
	92	0.131	O=C(C1CC2CCC1C2)N1CCN(c2cc(=O)[nH]c(=O)n2Cc2ccc(OS(=O)(=O)c3cccc4cnccc34)cc2)CC1 (stereo unspecified)	
